We go through 3 compounds from patent US9969741B2, “Pyrazolotriazines as inhibitors of nucleases” (MASARYKOVA UNIVERZITA, priority 2014, dated 2018).

Each structure is given as a SMILES string. Bounds are passed on as bounds.

Usually IC50 stands for the concentration that inhibits the measured activity by half.

The assay concerns the target T1, MUS81/EME1 (Homo sapiens, UniProt Q96NY9).
T1 sequence (Q96NY9 1-551): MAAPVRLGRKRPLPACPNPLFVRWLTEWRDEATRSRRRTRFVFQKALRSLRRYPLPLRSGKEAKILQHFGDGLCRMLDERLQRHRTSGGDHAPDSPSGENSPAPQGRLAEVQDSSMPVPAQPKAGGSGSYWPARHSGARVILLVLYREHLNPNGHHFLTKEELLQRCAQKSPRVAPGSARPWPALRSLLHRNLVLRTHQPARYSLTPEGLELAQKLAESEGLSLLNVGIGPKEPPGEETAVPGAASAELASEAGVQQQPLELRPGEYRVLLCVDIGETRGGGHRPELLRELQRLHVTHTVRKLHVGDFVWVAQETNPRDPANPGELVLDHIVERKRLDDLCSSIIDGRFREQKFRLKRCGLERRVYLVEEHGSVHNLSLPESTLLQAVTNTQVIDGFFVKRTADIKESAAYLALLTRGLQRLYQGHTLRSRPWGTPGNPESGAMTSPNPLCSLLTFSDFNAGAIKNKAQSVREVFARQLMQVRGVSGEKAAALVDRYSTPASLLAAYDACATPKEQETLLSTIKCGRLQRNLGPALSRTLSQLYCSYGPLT
T1 sequence (Q96AY2 1-570 partner): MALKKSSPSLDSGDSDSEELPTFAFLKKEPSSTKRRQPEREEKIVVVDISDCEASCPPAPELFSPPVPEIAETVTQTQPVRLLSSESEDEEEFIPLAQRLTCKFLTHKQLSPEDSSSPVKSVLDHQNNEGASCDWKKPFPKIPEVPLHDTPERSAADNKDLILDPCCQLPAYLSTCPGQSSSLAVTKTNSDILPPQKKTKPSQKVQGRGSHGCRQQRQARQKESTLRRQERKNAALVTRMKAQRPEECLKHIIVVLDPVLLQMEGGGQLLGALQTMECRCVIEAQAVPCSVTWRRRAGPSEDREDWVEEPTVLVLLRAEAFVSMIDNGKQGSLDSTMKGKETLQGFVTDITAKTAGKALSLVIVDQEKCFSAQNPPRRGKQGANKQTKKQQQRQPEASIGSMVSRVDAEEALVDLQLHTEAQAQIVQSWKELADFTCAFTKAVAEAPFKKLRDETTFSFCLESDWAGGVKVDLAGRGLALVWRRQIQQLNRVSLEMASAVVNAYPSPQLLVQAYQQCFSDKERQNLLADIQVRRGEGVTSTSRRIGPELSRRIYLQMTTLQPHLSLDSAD
In words: Nuclease inhibition assay, MUS81/EME1 (3′ flap fluorescent DNA substrate, gel readout). Format: biochemical. To be noted: 5 nM enzyme, 5 nM 3′ flap substrate, 15 min at 30° C. From the text:
In vitro assays were used for the determination of compound's IC50 values for inhibition of individual nucleases, i.e., MUS81/EME1, FEN1, EXO1, and MRE11. To generate IC50 values, concentration of compound was plotted against relative nuclease activity (in %). The dose-response curves were generated from inhibition data, from 5 point serial dilutions of inhibitory compounds, each in triplicate and fitted to a standard sigmoid curve. IC50 values were derived by standard nonlinear regression analysis.
All tested compounds were diluted in 100% DMSO (dimethylsulfoxide) to prepare working stocks with different concentrations. To keep the DMSO concentration constant in every reaction, always 0.5 μl of the compound stock was added to the reaction buffer. The reaction buffer differs depending on the enzyme tested. Also concentration of the compounds in the reaction depends on the particular enzyme, since the inhibitory effect of the compounds vary between the enzymes. Nevertheless, always doubling dilutions in the range 200-0.8 μM was used. The compound was added as the first component in the reaction buffer, followed by the enzyme addition. Short (15 minutes) pre-incubation step followed before the reaction was initiated by addition of DNA substrate (5 nM).
As a negative control, DNA substrate specific for each particular enzyme without the addition of the enzyme and the compound was used. The positive control contained all components of the reaction, except the compound of interest. However, to compensate for solvent effects, DMSO (at a final concentration of 2.5%) was included in the reaction.
For this experiment we prepared short fluorescently labeled oligonucleotide-based DNA substrates with specific structures reflecting the biochemical activities of tested individual nucleases (Table 1). These substrates were prepared by annealing of synthetic oligonucleotides purchased from VBC Biotech. Composition of each substrate is indicated below the table; the corresponding oligonucleotides were combined in equimolar ratios. For visualization, each substrate was labeled by fluorescent dye (fluorescein), which can be detected in the gel using appropriate imaging system (FLA-9000, Fuji) with filters for particular wavelengths (excitation: 485 nm, emission: 535 nm).
Nuclease assays were performed in reaction buffer specific for particular enzyme: MUS81/EME1 (50 mM Tris pH=7.5, 5 mM MgCl2, 1 mM DTT a 100 μg/ml BSA), MRE11 (30 mM Bis-Tris pH=7.0, 50 μg/ml BSA, 1 mM DTT a 250 μM MnCl2), EXO1 and FEN1 (50 mM Tris pH=7.5, 1 mM MgCl2, 1 mM DTT a 100 μg/ml BSA). The individual reactions were prepared by mixing with highly purified enzyme (MUS81/EME1 (5 nM), MRE11 (5 nM), EXO1 (5 nM) or FEN1 (10 nM); purification protocols described below), and different concentration of inhibitor (mentioned above) in corresponding reaction buffer. The final volume of the reaction was 20 μl. After short pre-incubation (15 minutes at room temperature), the reaction was initiated by addition of 5 nM of corresponding fluorescently labeled DNA substrate (3′ flap for MUS81/EME1, 5′ flap for MRE11 and FEN1, 3′ OH for EXO1; see FIG. 1) and incubated for 15 minutes at 30° C. Next, the reaction was stopped and deproteinized by addition of 2 μl of stop buffer, containing 0.1% SDS and 500 μg/ml proteinase K, and incubated for additional 5 minutes at 30° C. Then the loading dye, containing glycerol (60% glycerol, 10 mM Tris pH=7.4, 60 mM EDTA a 0.1% Orange G), was added to each reaction ( 1/10 of the reaction volume), and the whole mixture was subjected to electrophoresis in 10% polyacrylamide native gel (110 V, 40 min, 1× TBE). Fluorescently labeled DNA was detected by FLA-9000 scanner (Fuji) and the result was evaluated using Multi-Gauge V3.2 software (Fuji).
The Mus81/Eme1 expression construct was a kind gift from Dr. Steve West (Cancer Research UK). Briefly, the nuclease complex was purified as follows. […]
Regarding `CCc1nn2c(N)c(-c3nc4ccccc4[nH]3)nnc2c1-c1ccc(F)cc1` [Preparative Example 5A], the IC50 is below 10 µM.
Consider `Nc1c(-c2nc3ccccc3[nH]2)nnc2cc(-c3ccccc3)nn12` [Preparative Example 5C], for which the IC50 was below 50 µM.
The value for `Nc1c(-c2nc3ccccc3[nH]2)nnc2cc(-c3cccc4ccccc34)nn12` [Preparative Example 5K] was below 10 µM.
